Test results as given in US20160346249A1 (priority 2012, published 2016).
Read-outs that look alike come from different tables or passages of the source.

Assay: 13-week rat toxicity and toxicokinetic study
Format: in vivo
Conditions: for AUC(0-t): read-out: AUC0-24
Procedure: In two separate experiments, toxicology and toxicokinetic studies were performed. […] Blood samples were collected on Day 0 and Day 87 of the study from up to 3 animals/gender/group.
For toxicology assessment, clinical observations, body weight and food consumptions measures were noted periodically during the study. At termination, clinical pathology evaluations (hematology and serum chemistry) were performed, necropsies conducted, selected organs were weighed, and selected tissues examined microscopically.

[1] = female, Crl:CD (SD)IGS BR, rat, in vivo, po, 10 mg/kg/day, females, 10 mg/kg/day, Day 0
[2] = female, Crl:CD(SD)IGS BR, rat, in vivo, po, 10 mg/kg/day, females, 10 mg/kg/day, Day 87
[3] = female, Crl:CD(SD)IGS BR, rat, in vivo, po, 25 mg/kg/day, females, 25 mg/kg/day, Day 0
[4] = female, Crl:CD(SD)IGS BR, rat, in vivo, po, 25 mg/kg/day, females, 25 mg/kg/day, Day 87
[5] = female, Crl:CD(SD)IGS BR, rat, in vivo, po, 60 mg/kg/day, females, 60 mg/kg/day, Day 0
[6] = female, Crl:CD(SD)IGS BR, rat, in vivo, po, 60 mg/kg/day, females, 60 mg/kg/day, Day 87
[7] = male, Crl:CD(SD)IGS BR, rat, in vivo, po, 10 mg/kg/day, males, 10 mg/kg/day, Day 0
[8] = male, Crl:CD(SD)IGS BR, rat, in vivo, po, 10 mg/kg/day, males, 10 mg/kg/day, Day 87
[9] = male, Crl:CD(SD)IGS BR, rat, in vivo, po, 25 mg/kg/day, males, 25 mg/kg/day, Day 0
[10] = male, Crl:CD(SD)IGS BR, rat, in vivo, po, 25 mg/kg/day, males, 25 mg/kg/day, Day 87
[11] = male, Crl:CD(SD)IGS BR, rat, in vivo, po, 60 mg/kg/day, males, 60 mg/kg/day, Day 0
[12] = male, Crl:CD(SD)IGS BR, rat, in vivo, po, 60 mg/kg/day, males, 60 mg/kg/day, Day 87

Clc1ccc([C@]23CNC[C@H]2C3)cc1Cl [amitifadine, (+)-1-(3,4-dichlorophenyl)-3-azabicyclo[3.1.0]hexane]
test article-related deaths (number of females) (60 mg/kg/day, first week): Three
female vs male AUC0-24 and Cmax difference (all dose groups): up to 85%
NOAEL at 13 weeks (both sexes, Crl:CD(SD)IGS BR, rat, in vivo, oral gavage, 13 weeks): 10 mg/kg/day
Tmax [1]: 1 h
AUC(0-t) [1]: 10900 ng·h/mL
AUC(0-t) (female, Crl:CD(SD)IGS BR, rat, in vivo, oral, 10 mg/kg/day, females, 10 mg/kg/day, Day 87): 14400 ng·h/mL
Cmax [2]: 1850 ng/mL
Tmax [2]: 1 h
Cmax [3]: 2810 ng/mL
Tmax [3]: 2 h
AUC(0-t) [3]: 31000 ng·h/mL
Cmax [4]: 3700 ng/mL
Tmax [4]: 2 h
AUC(0-t) [4]: 30200 ng·h/mL
Cmax [5]: 6600 ng/mL
Tmax [5]: 2 h
AUC(0-t) [5]: 54400 ng·h/mL
Cmax [6]: 6530 ng/mL
Tmax [6]: 2 h
AUC(0-t) [6]: 88100 ng·h/mL
decrease in mean cumulative body weight gain vs control (females, 25 mg/kg/day): 13%
decrease in mean cumulative body weight gain vs control (females, 60 mg/kg/day): 13%
AUC(0-t) (male, Crl:CD(SD)IGS BR, rat, in vivo, oral, 10 mg/kg/day, males, 10 mg/kg/day, Day 87): 8130 ng·h/mL
Cmax [7]: 863 ng/mL
Tmax [7]: 2 h
AUC(0-t) [7]: 5940 ng·h/mL
Cmax [8]: 1120 ng/mL
Tmax [8]: 1 h
Cmax [9]: 2360 ng/mL
Tmax [9]: 2 h
AUC(0-t) [9]: 17400 ng·h/mL
Cmax [10]: 2490 ng/mL
Tmax [10]: 2 h
AUC(0-t) [10]: 22000 ng·h/mL
Cmax [11]: 3680 ng/mL
Tmax [11]: 1 h
AUC(0-t) [11]: 36300 ng·h/mL
Cmax [12]: 5010 ng/mL
Tmax [12]: 1 h
AUC(0-t) [12]: 60100 ng·h/mL
decrease in mean cumulative body weight gain vs control (males, 25 mg/kg/day): 16%
decrease in mean cumulative body weight gain vs control (males, 60 mg/kg/day): 30%
